In patent US12616681B2, “Compositions and methods for treating renal injury” (priority 2019, dated 2026):

Key:
[1] = tested on: contrast-induced acute kidney injury (CIAKI) mice; experiment: CIAKI mouse model: renal blood flow (laser Doppler flux); assay type: in vivo, C57/BL6 mice; details: CM + drug, 48 h after CM
Method: Total RBF was assessed by measuring renal Doppler flux using noninvasive laser Doppler flowmetry (PeriFlux System 5000, Perimed AB, Sweden). Laser Doppler probes were placed on the kidney surface to measure the renal flux. The flux was measured 48 h after CM administration. The relative increase represented the percentage increase in renal blood flow from baseline to peak for each test. Statistical significance was set as p<0.05.

[2] = tested on: mice with ischemic AKI (bilateral renal IRI); experiment: Renal IRI model: renal vasodilation and renal Doppler flux (RBF); assay type: in vivo, C57/BL6 mice
Method: The inner arteriolar area of the outer medulla was determined using α-smooth muscle actin (α-SMA)-stained sections. Kidneys were removed without perfusion under inhalational isoflurane anesthesia, divided into three pieces horizontally, immediately fixed in 10% formalin, and then embedded in paraffin. The inner area of α-SMA-positive vessels in the outer medulla was measured using ImageJ. The results are expressed as average areas of renal arteries in the outer medulla. As a surrogate for RBF, we used noninvasive laser Doppler flowmetry (periflux system 5000, Perimed) to measure flux, placing laser-Doppler probes at a fixed position on the kidney surface and recording renal cortical measurements. […] The relative increase represents the percent increase in RDF from baseline to peak for each test.

[3] = tested on: endogenous PGE2 levels in kidney tissue; experiment: Renal PGE2 levels after intraperitoneal injection in mice (Example 1); assay type: in vivo
Method: […] Protein concentrations of supernatant were determined by BCA assay (ThermoFisher Scientific, Rockford, IL). The PGE2 level was measured using a PGE2 ELISA kit (R&D Systems, Minneapolis, MN) in triplicate. PGE2 levels were expressed as nanograms of PGE2 per milligram of protein. Renal function was assessed by determining the serum levels of blood urea nitrogen (BUN; Abcam), serum creatinine (Agilent 6410 LC-MS/MS, Agilent, Santa Clara, CA), lipocalin-2 (R&D Systems), and kidney injury molecule-1 (KIM-1; R&D Systems) after reperfusion for 24 h. Measurement of serum creatinine was by HPLC. Serum creatinine was assessed using an Agilent 6410 LC-MS/MS system coupled with an Agilent 1200 series HPLC system (Agilent). The sample preparation for serum creatinine was that 50 μL of serum samples were mixed with 100 μL of acetonitrile that contained creatinine-d3 as an internal standard (5 μg/mL). The mixture was centrifuged at 13,000 rpm for 10 min after vigorous vortex, and 1 μL of supernatant was then injected into the LC-MS/MS system. The chromatography separation was performed on a Hypersil GOLD C18 column (150×2.1 mm, 3 m, Thermo Scientific) using a mobile phase of 0.1% formic acid solution and acetonitrile [70:30 (vol/vol)]. The flow rate was 0.2 mL/min. […] The multiple-reaction monitoring mode using specific precursor/production transition was used for quantification. […]

[4] = tested on: contrast-induced acute kidney injury (CIAKI) mice; experiment: CIAKI mouse model: renal vasodilation in the outer medulla; assay type: in vivo, C57/BL6 mice; details: CM + drug, 48 h after CM
Method: 48 h after CM injection, kidney tissues were harvested, fixed in 4% phosphate-buffered formalin, and embedded in paraffin. To quantify vasodilation, the inner arteriole area of the outer medulla was determined using α-SMA-stained sections. They were incubated for 1 h with an α-SMA antibody. 3,30-diamino-benzidine (0.7 g/tablet; Sigma-Aldrich) was added, followed by washing three times with PBS for 1 min each. After counterstaining with Mayer's hematoxylin, the inner areas of α-SMA-positive vessels in the outer medulla (25× magnification) were measured using ImageJ software. The results were expressed as the average area of all of the renal arteries in each outer medulla section.

[5] = tested on: contrast-induced acute kidney injury (CIAKI) mice; experiment: CIAKI mouse model: necrotic and apoptotic cell death, gross findings; assay type: in vivo, C57/BL6 mice; details: 48 h after CM
Method: Kidneys were harvested at 48 h after the CM injection, fixed in 4% phosphate-buffered formalin, and embedded in paraffin. To evaluate necrosis, […] paraffin sections were stained with hematoxylin and eosin. Tubular injury was scored semi-quantitatively according to a system by a pathologist who examined at least 20 separate fields (400× magnification) in the outer medulla, which is the zone most sensitive to ischemic injury. The scoring system was as follows: 0, no damage; 1, patchy isolated unicellular necrosis; 2, tubular necrosis <25%; 3, tubular necrosis 25-50%; and 4, tubular necrosis >50%. At least 20 consecutive high-power fields per section were scored by two operators blind to the details of the experiment. To analyze the frequency of apoptosis, […] paraffin sections were subjected to terminal deoxynucleotidyl transferase-mediated dUTP nick-end labeling (TUNEL) assay (Millipore, Temecula, CA, USA) according to the manufacturer's protocol. Four […] paraffin sections were incubated with the TUNEL reaction mixture at 37° C. for 1 h, followed by incubation with a horseradish peroxidase-conjugated detection antibody. The signals were visualized using diaminobenzidine (Sigma-Aldrich). After counterstaining with Mayer's hematoxylin, TUNEL-positive cells were counted in at least five separate fields (640× magnification) in the outer medulla, and the apoptosis index (%, number of apoptosis cells/total number of cells) was calculated using GENASIS software.

[6] = tested on: contrast-induced acute kidney injury (CIAKI) mice; experiment: CIAKI mouse model: AMP and adenosine levels in renal tissue; assay type: in vivo, C57/BL6 mice; details: CIAKI mice, CM + drug, 48 h after CM
Method: 48 h after CM administration, serum and kidney tissues were harvested. The adenosine levels in the serum and kidney tissues were measured using high-performance liquid chromatography.

[7] = tested on: human renal proximal tubular epithelial cells (hRPTECs); experiment: hRPTEC apoptosis by flow cytometry with iodixanol; assay type: cell-based; details: drug with iodixanol 50 mgI/mL, 24 h
Method: Human renal proximal tubular epithelial cells (hRPTECs) were purchased from the American Type Culture Collection (#PCS-400-010TM, Manassas, VA, USA). These cells were grown in 75 cm^2 flasks in Renal Epithelial Cell Basal Medium (PCS-400-030TM, ATCCVR) supplemented with Renal Epithelial Cell Growth Kit (PCS-400-040TM, ATCCVR).
After the treatment described in the section above, the hRPTECs were pelleted by centrifugation at 1800 rpm for 10 min and incubated with annexin V fluorescein isothiocyanate and propidium iodide using an Apoptosis Detection Kit I (#556547, BD Biosciences, San Jose, CA, USA) according to the manufacture's instruction. Then quantification was conducted using a FACSC flow cytometer with Cell Quest software (BD Biosciences).

Question: Which “RBF (renal Doppler flux)” value [1] does the source give for `CCCC[S+]([O-])c1sc2nc(-c3cccs3)cc(-c3ccccc3)c2c1N` (centres unmarked) [SW033291] here?
Answer: Its value is 635.2±11.10.

Question: And the “RDF-inferred RBF” value ([2]; 24 h following IRI)?
Answer: Its value is “completely preserved”.

Question: What about the “renal arteriolar area in the outer medulla” value ([2]; 24 h post-IRI, vs post-IRI vehicle and sham mice) of the same compound?
Answer: The value was “significantly increased”.

Question: And the “protection from reduction of RDF-inferred RBF” value ([2]; single dose 1 h before IRI (Pre) vs Pre+Post)?
Answer: The value was “somewhat less protection”.

Question: What about the “RDF-inferred RBF” value ([2]; within 1 h after the first injection, just before AKI) of the same compound?
Answer: The value was “increased inferred RBF above baseline”.

Question: And the “endogenous renal PGE2 (peak)” value ([3]; 1 h after intraperitoneal 5 mg/kg)?
Answer: Its value is “tripling”.

Question: And the “renal PGE2” value ([3]; 3 h after intraperitoneal injection of 2.5 or 5 mg/kg)?
Answer: Its value is “dose-dependent increase”.

Question: And the “average renal arteriole area in the outer medulla” value [4]?
Answer: Its value is 1132.97±159.86 μm^2.

Question: And the “vascular congestion in the outer medullary region (gross findings)” value [5]?
Answer: Its value is “less-congested”.

Question: What about the “proportion of TUNEL-positive cells” value ([5]; CM + drug) of the same compound?
Answer: The value was 24.01±2.90%.

Question: And the “microscopic renal injury score” value ([5]; CM + drug, score 0-4)?
Answer: The value was 0.53±0.16.

Question: What about the “AMP in renal tissue” value [6] of the same compound?
Answer: The value was 15.60 ± 1.26 ng/mL.

Question: And the “adenosine in renal tissue” value [6]?
Answer: The value was 2.65 ± 0.15 ng/mL.

Question: And the “apoptosis rate of hRPTECs” value [7]?
Answer: Its value is 10.06±0.85%.
